Earlier results in patent publication US20110262453A1, “Markers for Assessing the Susceptibility of Cancer to IGF-1R Treatment” (priority 2008, published 2011).

What was measured:
IGF-1R over IR = IGF-1R over IR (Homo sapiens, UniProt P08069)
[1] = system: cultured IGF-1R-positive tumor cells
IGF-1R = IGF-1R (Homo sapiens, UniProt P08069)
[2] = system: xenografted and allografted mice

Sequence of IGF-1R over IR (P08069 31-1367): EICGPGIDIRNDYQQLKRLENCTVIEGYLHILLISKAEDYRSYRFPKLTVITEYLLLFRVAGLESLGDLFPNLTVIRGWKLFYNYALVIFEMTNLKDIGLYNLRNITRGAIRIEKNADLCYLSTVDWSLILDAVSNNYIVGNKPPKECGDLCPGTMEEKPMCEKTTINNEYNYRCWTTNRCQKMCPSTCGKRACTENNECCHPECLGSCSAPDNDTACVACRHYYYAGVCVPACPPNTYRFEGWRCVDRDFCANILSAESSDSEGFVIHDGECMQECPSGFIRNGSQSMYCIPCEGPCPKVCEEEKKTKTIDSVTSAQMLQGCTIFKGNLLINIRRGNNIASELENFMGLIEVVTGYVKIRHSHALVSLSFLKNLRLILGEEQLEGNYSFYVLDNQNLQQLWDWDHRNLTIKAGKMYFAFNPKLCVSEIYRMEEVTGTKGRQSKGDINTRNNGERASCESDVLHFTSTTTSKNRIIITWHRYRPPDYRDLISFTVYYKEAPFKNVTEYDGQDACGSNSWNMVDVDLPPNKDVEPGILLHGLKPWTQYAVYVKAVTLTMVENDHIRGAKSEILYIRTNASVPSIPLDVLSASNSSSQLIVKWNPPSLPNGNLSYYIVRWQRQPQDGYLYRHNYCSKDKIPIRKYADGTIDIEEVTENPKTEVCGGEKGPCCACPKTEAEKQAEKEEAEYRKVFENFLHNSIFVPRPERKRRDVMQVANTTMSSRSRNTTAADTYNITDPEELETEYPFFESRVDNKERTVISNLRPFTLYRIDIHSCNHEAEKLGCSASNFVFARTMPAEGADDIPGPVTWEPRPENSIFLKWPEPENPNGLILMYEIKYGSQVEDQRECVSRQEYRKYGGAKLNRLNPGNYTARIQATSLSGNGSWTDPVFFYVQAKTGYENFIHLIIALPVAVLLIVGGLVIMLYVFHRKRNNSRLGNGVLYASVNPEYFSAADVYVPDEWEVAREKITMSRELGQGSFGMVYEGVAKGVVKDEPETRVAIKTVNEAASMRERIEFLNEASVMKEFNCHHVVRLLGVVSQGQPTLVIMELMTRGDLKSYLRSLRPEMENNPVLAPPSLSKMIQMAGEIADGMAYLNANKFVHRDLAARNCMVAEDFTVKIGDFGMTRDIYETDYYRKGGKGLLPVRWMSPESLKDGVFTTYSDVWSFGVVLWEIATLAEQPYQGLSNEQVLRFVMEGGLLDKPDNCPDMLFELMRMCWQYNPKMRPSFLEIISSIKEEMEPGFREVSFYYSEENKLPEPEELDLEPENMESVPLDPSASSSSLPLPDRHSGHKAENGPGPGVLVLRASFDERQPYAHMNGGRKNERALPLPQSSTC
Sequence of IGF-1R (P08069 31-1367): as above

Q: For `Nc1ncnc2c1c(-c1cccc(OCc3ccccc3)c1)cn2C1CC(CN2CCC2)C1` (centres unmarked) [NVP-AEW541], which “selectivity towards IGF-1R over IR” value (IGF-1R over IR) is on record?
A: The value was 100 fold.

Q: With `N#C/C(=C\c1ccc(O)c(O)c1)C(=O)c1ccc(O)c(O)c1` [AG538] as the compound, how does the “selectivity towards IGF-1R over IR (in words)” value (IGF-1R over IR) read?
A: The value was “some selectivity”.

Q: For `COc1cc([C@@H]2c3cc4c(cc3[C@H](O)[C@H]3COC(=O)[C@@H]23)OCO4)cc(OC)c1OC` [PPP, picropodophyllin], which apoptosis [1] is on record?
A: Its apoptosis is “induced apoptosis”.

Q: And the “pAkt and phosphorylated extracellular signal regulated kinase 1 and 2 (pErk1/2)” value [1]?
A: The value was “reduced”.

Q: What about the IGF-1R activity (IGF-1R) of the same compound?
A: Its IGF-1R activity is “efficiently blocked IGF-1R activity”.

Q: What about the tumor regression [2] of the same compound?
A: Its tumor regression is “complete tumor regression”.

Q: What about the LD50 (rodents) of the same compound?
A: The LD50 was greater than 500 mg/kg.

Q: Which “selectivity towards IGF-1R over IR (in words)” value (IGF-1R over IR) does the source give for `CC(C)(C)c1cc(C=C(C#N)C#N)cc(Br)c1O` [AG1024] here?
A: The value was “some selectivity”.
